One assay deals with HiBiT tagged GSPT1 (Homo sapiens, UniProt P15170+Q96SW2). The experiment in a line: GSPT1 degradation assay (HiBiT assay). Type of assay: cell-based. Conditions: 20 hours, maximum GSPT1 degradation; for Dmax: HT-1080, HT-1080 cells; for HiBiT GSPT1: Dmax: HT-1080 cells. Here is the method: (§1) CK1α and GSPT1 Degradation Assay (HiBiT Assay) The following is an example of an assay that can be used to determine the dose-dependent CK1α and GSPT1 degradation activities of test compounds in a human cell line such as HT-1080 ([…]). HT-1080 cells stably overexpressing wild-type CRBN, GSPT1A(1-138)/G575N mutant and HiBiT tagged CK1α or GSPT1 were seeded into 384-well plates (Cat #3764, Corning) pre-spotted with DMSO or test compounds. Increasing concentrations of test compounds (ranging from 3.162×10^-4 μM to 10 μM at a 3.16-fold increment) or DMSO were dispensed into an empty 384-well plate using an Echo Acoustic Liquid Handler (Beckman Coulter). About 10,000 cells in complete DMEM cell culture media were seeded per well. […] Luminescence was then measured with an EnVision plate reader (PerkinElmer) or a PHERAstar plate reader (BMG Labtech). All CK1α or GSPT1 degradation curves were processed using Collaborative Drug Discovery Vault softwares (Burlingame, CA., www.collaborativedrug.com). CK1α or GSPT1 levels in compound-treated wells were normalized to that of DMSO control and expressed as Percent of Control (PoC, y). […]
Sequence of HiBiT tagged GSPT1 (P15170 whole entry): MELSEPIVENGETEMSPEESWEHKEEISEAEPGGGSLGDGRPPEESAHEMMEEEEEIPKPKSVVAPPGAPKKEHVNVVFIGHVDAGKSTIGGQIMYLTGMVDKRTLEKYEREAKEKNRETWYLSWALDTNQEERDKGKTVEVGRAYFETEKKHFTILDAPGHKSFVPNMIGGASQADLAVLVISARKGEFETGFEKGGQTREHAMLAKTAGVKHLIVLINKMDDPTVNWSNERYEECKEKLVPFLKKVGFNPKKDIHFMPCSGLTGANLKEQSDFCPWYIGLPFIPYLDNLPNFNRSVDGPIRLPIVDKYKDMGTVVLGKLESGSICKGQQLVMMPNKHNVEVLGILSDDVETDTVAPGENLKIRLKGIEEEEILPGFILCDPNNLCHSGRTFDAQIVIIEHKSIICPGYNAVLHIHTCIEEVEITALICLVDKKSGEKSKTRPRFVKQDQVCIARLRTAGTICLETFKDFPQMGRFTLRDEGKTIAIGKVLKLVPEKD
Sequence of HiBiT tagged GSPT1 (Q96SW2 whole entry): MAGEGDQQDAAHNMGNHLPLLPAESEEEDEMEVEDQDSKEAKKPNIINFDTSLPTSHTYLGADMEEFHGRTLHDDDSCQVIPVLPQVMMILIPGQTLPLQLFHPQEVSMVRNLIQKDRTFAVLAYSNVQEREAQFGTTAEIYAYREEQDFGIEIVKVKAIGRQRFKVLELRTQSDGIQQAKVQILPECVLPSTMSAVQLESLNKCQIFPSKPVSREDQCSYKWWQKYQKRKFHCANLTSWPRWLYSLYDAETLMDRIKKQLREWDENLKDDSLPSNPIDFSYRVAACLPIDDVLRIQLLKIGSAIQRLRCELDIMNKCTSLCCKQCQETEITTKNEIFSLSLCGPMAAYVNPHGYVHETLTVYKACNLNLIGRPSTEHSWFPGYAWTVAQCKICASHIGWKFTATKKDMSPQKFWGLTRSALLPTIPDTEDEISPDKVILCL
Sequence of HiBiT tagged GSPT1 (Q16531 whole entry partner): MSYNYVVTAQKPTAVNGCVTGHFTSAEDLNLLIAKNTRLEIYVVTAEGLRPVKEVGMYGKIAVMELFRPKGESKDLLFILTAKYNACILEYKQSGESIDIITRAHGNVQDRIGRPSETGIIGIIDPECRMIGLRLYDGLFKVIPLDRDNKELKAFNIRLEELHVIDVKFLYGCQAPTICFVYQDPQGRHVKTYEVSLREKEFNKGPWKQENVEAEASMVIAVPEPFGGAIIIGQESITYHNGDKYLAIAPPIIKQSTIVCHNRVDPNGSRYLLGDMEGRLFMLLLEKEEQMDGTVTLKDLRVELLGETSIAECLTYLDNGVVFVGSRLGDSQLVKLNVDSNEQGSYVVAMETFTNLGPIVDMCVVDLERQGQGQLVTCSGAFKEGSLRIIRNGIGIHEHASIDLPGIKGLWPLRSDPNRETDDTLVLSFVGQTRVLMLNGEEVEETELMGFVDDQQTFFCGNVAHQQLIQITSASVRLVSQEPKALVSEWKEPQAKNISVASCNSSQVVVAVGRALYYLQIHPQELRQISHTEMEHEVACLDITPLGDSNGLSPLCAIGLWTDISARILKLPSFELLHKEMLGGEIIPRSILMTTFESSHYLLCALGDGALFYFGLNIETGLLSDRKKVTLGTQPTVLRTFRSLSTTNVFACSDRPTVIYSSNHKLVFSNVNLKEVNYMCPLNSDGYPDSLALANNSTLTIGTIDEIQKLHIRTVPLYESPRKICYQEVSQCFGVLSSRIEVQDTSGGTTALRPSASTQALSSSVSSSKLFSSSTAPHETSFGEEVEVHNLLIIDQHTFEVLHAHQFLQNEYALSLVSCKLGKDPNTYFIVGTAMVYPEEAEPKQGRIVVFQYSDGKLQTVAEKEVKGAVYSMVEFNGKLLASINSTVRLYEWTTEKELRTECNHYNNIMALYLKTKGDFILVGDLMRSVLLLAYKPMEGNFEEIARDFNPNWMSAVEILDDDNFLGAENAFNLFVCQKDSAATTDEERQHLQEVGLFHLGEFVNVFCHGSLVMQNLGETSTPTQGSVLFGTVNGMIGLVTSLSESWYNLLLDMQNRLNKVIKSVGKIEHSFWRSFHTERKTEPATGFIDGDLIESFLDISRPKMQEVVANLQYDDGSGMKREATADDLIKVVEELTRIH

The next assay has as its target HiBiT tagged CK1α (Homo sapiens, UniProt P48729+Q96SW2). The experiment in a line: CK1α degradation assay (HiBiT assay). It counts as cell-based. As to conditions: 20 hours; for Dmax: HT-1080, HT-1080 cells; for Dmax / HiBiT CK1α: Dmax: maximum CK1α degradation; for DC50 / HiBiT CK1α: Dmax: HT-1080 cells; for DC50: concentration at 50% CK1α degradation. Here is the method: as §1

The values below come from patent US12673936B2, “Isoindolinone compounds, and uses thereof” (HANGZHOU GLUBIO PHARMACEUTICAL CO., LTD., priority 2021, dated 2026).

Sequence of HiBiT tagged CK1α (P48729 whole entry): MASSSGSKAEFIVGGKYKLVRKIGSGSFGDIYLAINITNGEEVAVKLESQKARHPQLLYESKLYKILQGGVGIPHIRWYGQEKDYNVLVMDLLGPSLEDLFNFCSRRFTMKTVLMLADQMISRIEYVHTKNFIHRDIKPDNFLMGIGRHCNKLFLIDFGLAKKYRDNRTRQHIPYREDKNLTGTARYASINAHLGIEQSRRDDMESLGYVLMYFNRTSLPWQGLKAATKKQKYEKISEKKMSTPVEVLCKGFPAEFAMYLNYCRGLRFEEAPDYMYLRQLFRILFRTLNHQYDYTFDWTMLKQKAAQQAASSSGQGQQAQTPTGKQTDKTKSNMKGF
Sequence of HiBiT tagged CK1α (Q96SW2 whole entry): as the sequence (Q96SW2 whole entry) above
Sequence of HiBiT tagged CK1α (Q16531 whole entry partner): as the sequence (Q16531 whole entry partner) above

On to `N#Cc1ccccc1[C@@H](NC(=O)c1ccc2c(c1)CN(C1CCC(=O)NC1=O)C2=O)C1CC1` (stereo in doubt) [Compound 64, N-((*S)-(2-cyanophenyl)(cyclopropyl)methyl)-2-(2,6-dioxopiperidin-3-yl)-1-oxoisoindoline-5-carboxamide], for which the results for the greatest degradation seen (Dmax) on HiBiT tagged GSPT1 and at HiBiT tagged CK1α were 27.9% and 66.7%, respectively. It took 162 nM to reach half-maximal degradation on HiBiT tagged CK1α (DC50).

Take `O=C1CCC(N2Cc3cc(C(=O)N[C@@H](c4ccc(Cl)cc4)C4CC4)ccc3C2=O)C(=O)N1` (stereo in doubt) [Compound 2, N—((*R)-(4-chlorophenyl)(cyclopropyl)methyl)-2-(2,6-dioxopiperidin-3-yl)-1-oxoisoindoline-5-carboxamide]: at HiBiT tagged GSPT1, the “HiBiT GSPT1: Dmax” value turned out to be 33.6%. At HiBiT tagged CK1α, the DC50 turned out to be 180 nM and the “HiBiT CK1α: Dmax” value is listed as 67%.

At HiBiT tagged GSPT1, `O=C1CCC(N2Cc3cc(C(=O)NC(c4ccc(F)c(F)c4)C4CCC4)ccc3C2=O)C(=O)N1` (single isomer, unassigned) [Compound 47, N-((*R)-cyclobutyl(3,4-difluorophenyl)methyl)-2-((*R)-2,6-dioxopiperidin-3-yl)-1-oxoisoindoline-5-carboxamide] registered a Dmax of 29.7%. At HiBiT tagged CK1α, the Dmax came out at 56.1% and the DC50 was found to be 2960 nM.

In turn, `O=C1CCC(N2Cc3cc(C(=O)NC(c4c(F)cccc4F)C4CCC4)ccc3C2=O)C(=O)N1` (stereo not drawn) [Compound 22, N-(cyclobutyl(2,6-difluorophenyl)methyl)-2-(2,6-dioxopiperidin-3-yl)-1-oxoisoindoline-5-carboxamide] gave a maximal degradation (Dmax) on HiBiT tagged GSPT1 of 48.3%. At HiBiT tagged CK1α, the Dmax was found to be 70.7% and the DC50 was determined as 79.7 nM.

For `O=C1CCC(N2Cc3cc(C(=O)N[C@H](c4ncccc4F)C4CCC4)ccc3C2=O)C(=O)N1` (stereo in doubt) [Compound 24, N-((*S)-cyclobutyl(3-fluoropyridin-2-yl)methyl)-2-(2,6-dioxopiperidin-3-yl)-1-oxoisoindoline-5-carboxamide], on HiBiT tagged GSPT1, the “HiBiT GSPT1: Dmax” value is recorded as 63.1%. In addition, on HiBiT tagged CK1α, it took 363 nM to reach half-maximal degradation (DC50) and the “HiBiT CK1α: Dmax” value is reported as 63.2%.

On HiBiT tagged GSPT1, `CN1CCN(c2ccc([C@@H](NC(=O)c3ccc4c(c3)CN(C3CCC(=O)NC3=O)C4=O)C3CCC3)cc2)CC1` (stereo in doubt) [Compound 21, N-((*S)-cyclobutyl(4-(4-methylpiperazin-1-yl)phenyl)methyl)-2-(2,6-dioxopiperidin-3-yl)-1-oxoisoindoline-5-carboxamide] gave a Dmax of 20.6%. On HiBiT tagged CK1α, this compound yielded a Dmax of 60.6% and a DC50 of 132 nM.

In the case of `O=C1CCC(N2Cc3cc(C(=O)N[C@H](c4ncc(F)cc4Cl)C4CC4)ccc3C2=O)C(=O)N1` (stereo in doubt) [Compound 71, N-((*S)-(3-chloro-5-fluoropyridin-2-yl)(cyclopropyl)methyl)-2-(2,6-dioxopiperidin-3-yl)-1-oxoisoindoline-5-carboxamide], on HiBiT tagged GSPT1, the Dmax is 19.1%. On HiBiT tagged CK1α, this compound yielded a Dmax of 61.7% and a DC50 of 455 nM.

For `O=C1CCC(N2Cc3cc(C(=O)N[C@H](c4cccc(F)c4)C4CC4)ccc3C2=O)C(=O)N1` (stereo in doubt) [Compound 26, N-((*S)-cyclopropyl(3-fluorophenyl)methyl)-2-(2,6-dioxopiperidin-3-yl)-1-oxoisoindoline-5-carboxamide], at HiBiT tagged GSPT1, the Dmax was determined as 30.7%. On HiBiT tagged CK1α, this compound displayed a Dmax of 58.4% and a DC50 of 417 nM.

Regarding `O=C1CCC(N2Cc3cc(C(=O)N[C@H](c4ccc(F)cc4)C4CCOCC4)ccc3C2=O)C(=O)N1` (stereo in doubt) [Compound 38, 2-(2,6-dioxopiperidin-3-yl)-N-((*S)-(4-fluorophenyl)(tetrahydro-2H-pyran-4-yl)methyl)-1-oxoisoindoline-5-carboxamide], at HiBiT tagged GSPT1, the Dmax is 19.9%. On HiBiT tagged CK1α, this compound returned a Dmax of 64.1% and a DC50 of 218 nM.
